Assay results from ChEMBL document CHEMBL1131746, “Synthesis of taxoids 5. Synthesis and evaluation of novel water-soluble prodrugs of a 3'-desphenyl-3'-cyclopropyl analogue of docetaxel” (Bioorg Med Chem Lett, 1999).
Values after ≈ are worked out from the molar mass of the structure shown.

Columns and labels:
[1] = tested on: Mus musculus; test: Compound was evaluated for antitumor activity by iv administration against B16 melanoma implanted sc in mice at dose 12.5 mg/kg/day; assay type: functional
[2] = tested on: Mus musculus; test: Antitumor activity was measured as change in body weight on day 10 in mice implanted with B16 melanoma cells at dose of 12.5 mg/kg/day; assay type: functional
[3] = Solubility in saline; assay type: physicochemical; settings: read-out: S
[4] = Ratio of IC50 of docetaxel / IC50 against MKN1 cell line was determined; assay type: functional, MKN-1
[5] = Ratio of IC50 of docetaxel / IC50 against WiDr cell line was determined; assay type: functional
[6] = Inhibitory concentration required against Colon320 human colon cancer cell line was determined; assay type: functional, cell-based; settings: cancer cell lines
[7] = Ratio of IC50 of docetaxel / IC50 against SK-BR-3 cell line was determined; assay type: functional
[8] = Ratio of IC50 of docetaxel / IC50 against SK-LU-1 cell line was determined; assay type: functional
[9] = tested on: OVCAR-3; test: Inhibitory concentration required against OVCAR-3 human ovarian cancer cell line was determined; assay type: functional, cell-based
[10] = tested on: SK-BR-3; test: Inhibitory concentration required against SK-BR-3 human breast cancer cell line was determined; assay type: functional, cell-based
[11] = tested on: Mus musculus; test: Antitumor activity was measured as change in body weight on day 10 in mice implanted with B16 melanoma cells at a dose of 6.3 mg/kg/day; assay type: functional
[12] = tested on: SK-LU-1; test: Inhibitory concentration required against SK-LU-1 human lung cancer cell line was determined; assay type: functional, cell-based
[13] = tested on: WiDr; test: Inhibitory concentration required against WiDr human colon cancer cell line was determined; assay type: functional, cell-based
[14] = Inhibitory concentration required against MKN1 human stomach cancer cell line was determined; assay type: functional, cell-based; settings: cancer cell lines
[15] = tested on: Mus musculus; test: Compound was evaluated for antitumor activity by iv administration against B16 melanoma implanted sc in mice at a dose of 6.3 mg/kg/day; assay type: functional
[16] = Ratio of IC50 of docetaxel / IC50 against OVCAR-3 cell line was determined; assay type: functional
[17] = Ratio of IC50 of docetaxel / IC50 against Colon 320 cell line was determined; assay type: functional, COLO 320
[18] = tested on: Mus musculus; test: Antitumor activity was measured as change in body weight on day 10 in mice implanted with B16 melanoma cells at dose of 20 mg/kg/day; assay type: functional
[19] = tested on: Mus musculus; test: Compound was evaluated for antitumor activity by iv administration against B16 melanoma implanted sc in mice at dose 20 mg/kg/day; assay type: functional

Question: What does the source list for `CC(=O)O[C@@]12CO[C@@H]1C[C@H](O)[C@@]1(C)C(=O)[C@H](O)C3=C(C)[C@@H](OC(=O)[C@H](OC(=O)OCOC(=O)C[C@H](N)C(N)=O)[C@@H](NC(=O)OC(C)(C)C)C4CC4)C[C@@](O)([C@@H](OC(=O)c4ccccc4)[C@H]21)C3(C)C`?
Answer: ILS at 12.5 mg/kg/day [1]: 227%; Body weight change [2]: -3.2%; solubility [3]: 5000 µg/mL (≈ 5.21 mM)

Question: With `CC(=O)O[C@@]12CO[C@@H]1C[C@H](O)[C@@]1(C)C(=O)[C@H](O)C3=C(C)[C@@H](OC(=O)[C@H](OC(=O)OCOC(=O)C[C@@H](N)C(N)=O)[C@@H](NC(=O)OC(C)(C)C)C4CC4)C[C@@](O)([C@@H](OC(=O)c4ccccc4)[C@H]21)C3(C)C` as the compound, how does the ILS at 12.5 mg/kg/day [1] read?
Answer: The ILS at 12.5 mg/kg/day was 127%.

Question: And the Body weight change [2]?
Answer: The Body weight change was -11.1%.

Question: And the solubility [3]?
Answer: Its solubility is 50000 µg/mL (≈ 52.1 mM).

Question: With `CC(=O)O[C@@]12CO[C@@H]1C[C@H](O)[C@@]1(C)C(=O)[C@H](O)C3=C(C)[C@@H](OC(=O)[C@H](OC(=O)OCOC(=O)C[C@H](N)C(=O)O)[C@@H](NC(=O)OC(C)(C)C)C4CC4)C[C@@](O)([C@@H](OC(=O)c4ccccc4)[C@H]21)C3(C)C` as the compound, how does the ILS at 12.5 mg/kg/day [1] read?
Answer: The ILS at 12.5 mg/kg/day was 212%.

Question: And the Body weight change [2]?
Answer: The Body weight change was 3.3%.

Question: What about the solubility [3] of the same compound?
Answer: The solubility was 1000 µg/mL (≈ 1.04 mM).

Question: Which ILS at 12.5 mg/kg/day [1] does the source give for `CNC(=O)[C@@H](N)CC(=O)OCOC(=O)O[C@@H](C(=O)O[C@H]1C[C@@]2(O)[C@@H](OC(=O)c3ccccc3)[C@@H]3[C@]4(OC(C)=O)CO[C@@H]4C[C@H](O)[C@@]3(C)C(=O)[C@H](O)C(=C1C)C2(C)C)[C@@H](NC(=O)OC(C)(C)C)C1CC1` here?
Answer: The ILS at 12.5 mg/kg/day was 185%.

Question: What about the Body weight change [2] of the same compound?
Answer: The Body weight change was -0.5%.

Question: And the solubility [3]?
Answer: Its solubility is 10000 µg/mL (≈ 10.3 mM).

Question: What does the source list for `CCOC(=O)[C@@H](N)CC(=O)OCOC(=O)O[C@@H](C(=O)O[C@H]1C[C@@]2(O)[C@@H](OC(=O)c3ccccc3)[C@@H]3[C@]4(OC(C)=O)CO[C@@H]4C[C@H](O)[C@@]3(C)C(=O)[C@H](O)C(=C1C)C2(C)C)[C@@H](NC(=O)OC(C)(C)C)C1CC1`?
Answer: ILS at 12.5 mg/kg/day [1]: 213%; Body weight change [2]: -2.9%; solubility [3]: 10000 µg/mL (≈ 10.1 mM)

Question: With `CC(=O)O[C@@]12CO[C@@H]1C[C@H](O)[C@@]1(C)C(=O)[C@H](O)C3=C(C)[C@@H](OC(=O)[C@H](O)[C@@H](NC(=O)OC(C)(C)C)C4CC4)C[C@@](O)([C@@H](OC(=O)c4ccccc4)[C@H]21)C3(C)C` as the compound, how does the Ratio [4] read?
Answer: Its Ratio is 1.4.

Question: And the Ratio [5]?
Answer: Its Ratio is 16.

Question: What about the IC50 [6] of the same compound?
Answer: Its IC50 is 0.21 nM.

Question: And the Ratio [7]?
Answer: Its Ratio is 4.3.

Question: What about the Ratio [8] of the same compound?
Answer: The Ratio was 1.8.

Question: What about the IC50 [9] of the same compound?
Answer: Its IC50 is 0.52 nM.

Question: What about the IC50 [10] of the same compound?
Answer: The IC50 was 1.1 nM.

Question: And the Body weight change [11]?
Answer: Its Body weight change is -7.5%.

Question: What about the IC50 [12] of the same compound?
Answer: The IC50 was 1 nM.

Question: What about the IC50 [13] of the same compound?
Answer: The IC50 was 0.027 nM.

Question: And the IC50 [14]?
Answer: Its IC50 is 1.2 nM.

Question: What about the ILS at 6.3 mg/kg/day [15] of the same compound?
Answer: The ILS at 6.3 mg/kg/day was 187%.

Question: What about the Ratio [16] of the same compound?
Answer: The Ratio was 2.3.

Question: What about the Ratio [17] of the same compound?
Answer: Its Ratio is 23.

Question: With `CC(=O)O[C@@]12CO[C@@H]1C[C@H](O)[C@@]1(C)C(=O)[C@H](O)C3=C(C)[C@@H](OC(=O)[C@H](O)[C@@H](NC(=O)OC(C)(C)C)c4ccccc4)C[C@@](O)([C@@H](OC(=O)c4ccccc4)[C@H]21)C3(C)C.O.O.O` [DOCETAXEL] as the compound, how does the Body weight change [18] read?
Answer: Its Body weight change is -13%.

Question: What about the IC50 [6] of the same compound?
Answer: Its IC50 is 4.8 nM.

Question: And the IC50 [9]?
Answer: Its IC50 is 1.2 nM.

Question: And the IC50 [10]?
Answer: The IC50 was 4.7 nM.

Question: And the IC50 [12]?
Answer: The IC50 was 1.8 nM.

Question: And the IC50 [13]?
Answer: Its IC50 is 0.43 nM.

Question: What about the IC50 [14] of the same compound?
Answer: The IC50 was 1.7 nM.

Question: And the ILS at 20 mg/kg/day [19]?
Answer: The ILS at 20 mg/kg/day was 149%.
